| SMILES | melting point [°C] |
| --- | --- |
| O=[N+]([O-])c1cc(C(F)(F)F)cc([N+](=O)[O-])c1O | 47 to 48 |
| CC(C)CCCCCO | -106 |
| O=C1c2ccc([N+](=O)[O-])cc2C(=O)N1CCCBr | 104 to 107 |
| CC(=O)NC1CCSC1=O (racemic) | 110 |
| O=C(O)C(F)(F)C(F)(F)C(F)(F)C(F)(F)C(F)(F)C(F)(F)C(F)(F)C(F)(F)C(F)(F)C(F)(F)F | 97.9 to 100 |
| CCCCCCCCCC(=O)CCC | 19 |
| O=C(c1ccc(F)cc1)C1CCN(CCn2c(=O)[nH]c3ccccc3c2=O)CC1 | 231 |
| O=C(NC1(C(=O)O)Cc2ccccc2C1)OCC1c2ccccc2-c2ccccc21 | 198 to 202 |
| Brc1ccc(-c2ccc(Br)cc2)cc1 | 167 |
| C[Si](N[Si](C)(c1ccccc1)c1ccccc1)(c1ccccc1)c1ccccc1 | 91 |
| COC(=O)C1(C)CCC(C(=O)O)C1(C)C (configuration not stated) | 74 to 78 |
| Brc1cccc(N2CCCC2)n1 | 86 to 88 |
| O=C1NN=C(C(F)(F)F)C1=NNc1ccc(Cl)cc1 | 215 |
| Clc1ccc(Cc2ccc(Cl)cc2)cc1 | 55.5 |
| C#CCCCCCCCCC | -25 |
| CCCC1(O)CCC2C3CCC4CC(OC(C)=O)CCC4(C)C3CCC21C (configuration not stated) | 120 to 121 |
| NNC(=O)C1CC1C(=O)NN (configuration not stated) | 187 to 191 |
| CNC(C)=CC(=O)OC | 62 to 68 |
| Cc1c(C)c(Br)c(Br)c(Br)c1Br | 262 |
| NCc1cc2ccccc2s1 | 58 to 59 |
| CC(=O)OC1CCC(C(C)(C)C)CC1 (configuration not stated) | -50 |
| COC1C(O)C(C)OC(OC2CCC3(C)C(CCC4C3CCC3(C)C(C5=CC(=O)OC5)CCC43O)C2)C1O (configuration not stated) | 221 |
| C1CNCCNCCNCCN1 | 108 to 113 |

| SMILES | melting point [°C] |
| --- | --- |
| O=C(O)C=CCCl | 83 |
| Cn1c(=O)c2c(ncn2CC(O)CO)n(C)c1=O (configuration not stated) | 162 |
| Nc1nc(=O)[nH]cc1F | 296 |
| CCCCC(=O)CCCC | -3.8 |
| FC(F)(F)C(Cl)(Cl)C(F)(F)Cl | -4.3 |
| N#Cc1cn(C2CC2)c(=O)[nH]c1=O | 254 to 258 |
| FC(F)(F)c1ccccc1CBr | 34 to 35 |
| OCc1cccc(Cl)c1Cl | 88 to 94 |
| COP(=S)(OC)SCC(=O)N(c1ccc(Cl)cc1)C(C)C | 51 |
| O=C(CCl)c1cc(Br)c(Cl)s1 | 77 to 78 |
| CCCCCCCCCCc1cc(-c2cc(-c3ccccc3)c3ccccc3n2)sc1-c1sc(-c2cc(-c3ccccc3)c3ccccc3n2)cc1CCCCCCCCCC | 21.9 |
| COc1ccc([P+]2([S-])Nn3c(nnc3C(F)(F)F)S2)cc1 (configuration not stated) | 211 |
| CC(C)(OO)c1ccccc1 | -9 |
| CN1C(=O)C(=NNc2ccc(Br)cc2)C(=O)N(C)C1=O | 218 |
| Clc1cc(Cl)c2ccccc2c1 | 62.3 |
| O=C1c2ccccc2C2NCCCN12 (configuration not stated) | 130 to 132 |
| O=Cc1ccc(Br)cn1 | 95 |
| CC12CCC3c4ccc(OC5CCCC5)cc4CCC3C1CC(O)C2O (configuration not stated) | 99 |
| CC(C)(C)C(=O)C(Oc1ccc(Cl)cc1)n1cncn1 (configuration not stated) | 82.3 |
| NC(=O)CC(O)C(=O)O (configuration not stated) | 148 |
| Nc1ccc(Cl)c(Cl)c1 | 72 |
| NC(=O)c1ccccc1OC(F)(F)F | 154 |
| O=C1c2ccccc2C(=C(c2ccccc2)c2ccccc2)c2ccccc21 | 203 to 207 |

| SMILES | melting point [°C] |
| --- | --- |
| OCC1OC(OC2OC(CO)C(O)C(O)C2O)C(O)C(O)C1O (configuration not stated) | 203 |
| CC1CN(c2ccccc2)NC1=O (configuration not stated) | 133 to 136 |
| OCC(F)(F)C(F)(F)C(F)(F)C(F)(F)C(F)(F)C(F)(F)C(F)(F)C(F)(F)CO | 132 to 137 |
| CC(C)c1ccc(C(C)C)cc1 | -17 |
| Nc1c(F)ccc(Cl)c1F | 47 |
| CC(=O)C1CCC2C3CCC4=CC(=O)CCC4(C)C3CCC12C (configuration not stated) | 128 to 132 |
| C1COCCOCCOCCO1 | 16 |
| COc1ccc([N+](=O)[O-])c(N)c1 | 131 |
| CC(NC(=O)CCCCNC(=O)C12CC3CC(CC(C3)C1)C2)[P+]([O-])(Oc1ccccc1)Oc1ccccc1 (configuration not stated) | 150 |
| CC12CCC3C4CCC(=O)C=C4CCC3C1CCC2O (configuration not stated) | 122 |
| C[C@]12CCC(=O)CC1CCC1=C2CC[C@]2(C)C(=O)CC[C@@H]12 (some centres not stated) | 148 |
| O=C1OC(c2ccccc2)=NC1=Cc1ccc(-c2ccc([N+](=O)[O-])cc2)o1 | 208 |
| COc1cc(CC2c3cc(OC)c(OC)cc3CCN2C)c(Oc2cc3c(cc2OC)-c2c(OC)c(OC)cc4c2C(C3)N(C)CC4)cc1OC (configuration not stated) | 160 |
| CC1(C)OC(=O)C2(CC2)C(=O)O1 | 65 |
| O=[N+]([O-])c1cc(O)c(Cl)cc1Cl | 100 |
| Sc1nccn1-c1cc(Cl)ccc1Cl | 273 |
| CCOc1cc(-c2nccc3cc(OC)c(OC)cc23)cc(OCC)c1OCC | 98 to 103 |
| CCCN(CC)CC1COC2(CCC(C(C)(C)C)CC2)O1 (configuration not stated) | < 25 |
| FC(F)(F)c1ccccc1-n1cc[nH]c1=S | 236 to 238 |
| Oc1c(Br)cc(Br)cc1-c1cc(Br)cc(Br)c1O | 205 |
| CCC(=O)C(C)(C)C | -45 |
| CC12CCC(C(=CC(N)=O)C1=O)C2(C)C (configuration not stated) | 152 |
| O=C(OCC(COC(=O)c1ccccc1)OC(=O)c1ccccc1)c1ccccc1 | 76 |

The remaining lines, values ahead:

| melting point [°C] | SMILES |
| --- | --- |
| 49 | CCOC(=O)NCc1ccccc1 |
| 211 to 215 | O=C(O)CNc1ccc(Br)cc1C(=O)O |
| 160 | Cn1c(/C(C#N)=N/Nc2ccc(Cl)cc2Cl)nc2ccccc21 |
| 184 | O=C(c1cccc([N+](=O)[O-])c1)c1nn(-c2ccccc2)/c(=N\Nc2ccccc2)s1 |
| 128 to 134 | Cc1ccc(C(C=O)C=O)cc1 |
| 247 to 249 | Nc1nc2ccc([N+](=O)[O-])cc2s1 |
| 49 | CCCN(C(C)=O)c1ccccc1 |
| 103 | CC(O)C(NC(=O)OCc1ccccc1)C(=O)O (configuration not stated) |
| 124 | CCC(=C(CC)c1ccc(OC)cc1)c1ccc(OC)cc1 |
| 233 | CC(=O)N(c1ccccc1)c1cc(N(C(C)=O)c2ccccc2)c([N+](=O)[O-])cc1[N+](=O)[O-] |
| 290 | Cn1c(=O)c(C2=NNC(=O)C2=CNc2ccc(Cl)cc2)c(O)c2ccccc21 |
| 216 to 218 | Cc1cc(C(=O)O)ccc1Cl |
| 250 | NNC(=O)c1ccc(Cl)nc1 |
| 285 | O=C(O)c1ccc(N2C(=O)C3C(C(=O)c4ccc(Cl)cc4)=NN(c4ccccc4)C3C2=O)cc1 (configuration not stated) |
| 89 to 90 | Cc1ccc(OC(C)(C)C(=O)O)c2c1CCC2 |
| 24 | Cc1ccc([N+](=O)[O-])c(Cl)c1 |
| 85 to 87 | CCOC(=O)c1c(-c2cccs2)csc1N |
| 191 to 193 | CCOC(=O)c1c[nH]c(S)n1 |
| 104 | O=S(=O)(Cl)c1ccc(S(=O)(=O)c2ccccc2)s1 |
| 51.6 | CCc1cc(C)cc(O)c1 |
| 52 | O=Cc1c(O)cc(Cl)cc1Cl |
| 46 | COc1cc(O)cc(OC)c1 |
| 127 to 131 | Cc1cc(C=O)c(O)c(C=O)c1 |
| 105 | O=C(Cn1cncn1)c1ccc(F)cc1F |
| 140 | O=C(c1ccco1)c1noc(-c2ccc(Cl)cc2)c1S(=O)(=O)c1ccccc1 |
| 42 | CCS(=O)(=O)c1ccccc1 |
| 203 to 205 | O=[N+]([O-])c1ccc(-c2nc3n(c2[N+](=O)[O-])CCS3)cc1 |

| melting point [°C] | SMILES |
| --- | --- |
| 93 | COc1cccc2cc(C(C)=O)oc12 |
| 139 to 140 | Clc1ncnc2sc(-c3ccccc3)cc12 |
| 232 to 235 | O=[N+]([O-])c1ccc(-c2csc3nc4ccccc4n23)cc1 |
| 107 to 109 | Cc1onc(-c2c(Cl)cccc2Cl)c1CO |
| 179 | N#CC1=C(C#N)C(=O)C(NCCCc2ccccc2)=C(Cl)C1=O |
| 236 | CC(=O)Nc1ccc(/C=C/c2ccc([N+](=O)[O-])cc2)c([N+](=O)[O-])c1 |
| 136 to 137 | Cc1ccc(C(N)=NO)cc1 |
| 237 | Cc1csc(NS(=O)(=O)c2ccc(N)cc2)n1 |
| 254 | CC(=O)C(C(C)=O)=C1SC2=C(C(=O)c3ccccc3C2=O)N1c1ccccc1 |
| 219 to 221 | Cc1nc(NC(=O)NS(=O)(=O)c2cccs2)nc(O)c1C |
| 129 to 130 | NNC(=O)c1snnc1-c1ccccc1 |
| 129 | Cc1cccc(N2C(=O)C3ON=C(C(=O)c4ccco4)C3C2=O)c1 (configuration not stated) |
| 140 | Oc1ccc(Nc2ccc3ccccc3c2)cc1 |
| 115 | COc1ccc[nH]c1=O |
| 79 | CCOC(=O)C(Nc1cccc(NC(C(=O)OCC)C(=O)OCC)c1)C(=O)OCC |
| 285 | Cc1ccc(/N=N/c2c(N)nn3c(C)cc(=O)[nH]c23)cc1 |
| 10 | Cc1ccccc1S(=O)(=O)Cl |
| 192 to 194 | O=C(O)c1cccc2c1-c1ccccc1C2 |
| 136 to 139 | Cc1cc(C(=O)Nc2ccccc2)no1 |
| 85 to 88 | CCOC(=O)C(=CNc1cc(C)nn1C)C(=O)OCC |
| 69 | N#Cc1cc(S(=O)(=O)Cl)ccc1F |
| 120 to 122 | O=C(O)c1ccc(C(F)(F)F)nc1Cl |
| 120 | CCOC(=O)c1c(SC)nn(C(=O)Cc2ccccc2)c1N |
| 138 to 140 | CC(C)(C)OC(=O)Nc1ccsc1 |
| 106 to 107 | O=C(Cl)c1cc2cc(Br)ccc2o1 |
| 167 | COc1cccc(C2NC(=O)NC(C)=C2C(=O)OC(C)C)c1OC (configuration not stated) |

— a melting point compilation (Tetko et al.)
